Bounds are passed on as bounds.

For `CCOC(Nc1ccccc1)(OCC)c1ccnc(C(=O)c2ccccc2)c1`, the melting point (commonly the temperature of the solid-liquid transition) lay within 114 to 115 °C. Compound `COc1ccc(NC(=O)Nc2ccc(Cl)c(Cl)c2)cc1N` showed a melting point of 202 to 204 °C. Regarding `COc1ccc(Cn2c(=O)c3cc([N+](=O)[O-])ccc3n(CCCCBr)c2=O)cc1`, the melting point was in the range of 143 to 144 °C. The value for `CCN(CC)CCOc1ccc(Nc2ncc3cc(-c4c(Cl)cccc4Cl)c(=O)n(C)c3n2)cc1` was 141 to 143 °C; that for `NC(=O)c1cn(C(CO)c2ccccc2)cn1` (stereo not drawn) was 147 to 149 °C; that for `CN1C2CCC1CN(c1ccc(-c3ccccc3)nn1)C2` was 151 °C. As for `N#Cc1cc(Sc2ccc(Cl)c(Cl)c2)ccc1N`, the melting point lay in the range of 126 to 128 °C. `CCCCOc1ccc(-c2nc(-c3ccc(Sc4ccccc4)cc3)nc(-c3ccc(OCCCC)cc3O)n2)c(O)c1` came in with a melting point of more than 250 °C. `Cc1ccc(C2COc3c(C)c(C)c(N)c(C)c32)nc1` (stereo not drawn) showed a melting point of 125 to 127 °C. In the case of `O=c1ncc(Br)cn1Cc1cccs1`, the melting point fell in the range of 188 to 190 °C. The value for `CNc1nc(-c2cccc(-c3cnc4ccccc4c3)c2)c2cc(OC)c(OC)cc2n1` was 218 to 220 °C; that for `CCOc1ccc(OCC(=O)OC(C)(C)C)c2c1C(=O)N(CSc1nnnn1-c1ccccc1)S2(=O)=O` was 110 to 112 °C. `Oc1ccc(N2CCN(Cc3nc4ccccc4s3)CC2)cc1`: the melting point was 175 to 176 °C. For the compound `O=C(CN1CCOCC1)Nc1ccn(-c2ccc(Cl)c(Cl)c2)n1`, the melting point was 125 to 127 °C. The value for `Cc1ccc2c(c1)C(C(=O)Nc1c(C)cccc1Cl)c1ccccc1CO2` (stereo not drawn) was 160 to 161 °C; that for `O=C(O)Cc1nn(Cc2ccc(Br)c(Cl)c2)c(=O)c2ccccc12` was 186 °C. Turning to `N#CCNC(=O)C1(NC(=O)c2ccc(C3CCN(C4CCCC4)CC3)cc2)CCCCC1`, the melting point was 233 to 234 °C. `C#CC(Cn1ncnn1)n1nnc2cc3c(=O)n(C4CC4)nnc3cc2c1=O` (stereo not drawn) gave a melting point of 224 to 225 °C. Compound `CNC(=S)C1(c2cccnc2)CCCCC1=CCOc1ccc(O)cc1` (stereo not drawn) registered a melting point of 82 to 88 °C. Take `N#Cc1ccc2nc(-c3ccc(Br)cc3)cn2c1`: the melting point lay in the range of 262 to 264 °C.

In turn, `CCC1(CC)OC(=O)Nc2ccc(-c3cccc(Cl)c3)cc21` returned a melting point of 150 to 151 °C. The value for `COc1cc2ncc(C#N)c(Nc3cccc(N)c3)c2cc1OC` was 222 to 228 °C; that for `CSc1nc(Cl)c2ccsc2n1` was 105 to 107 °C.

Consider `CNC(=C[N+](=O)[O-])NCCSCc1csc(CN2CCCC2)n1`, for which the melting point was in the range of 119 to 120 °C. The compound `CC1CC(=O)NN=C1c1ccc2c(c1)OCC(=O)N2C` (stereo not drawn) registered a melting point of 188 to 190 °C. Compound `COc1ccc(-c2ccc(C(=O)Nc3ccc4nc(CN5CCCC5)ccc4c3)cc2)cc1` displayed a melting point of 197 to 199 °C. The value for `COc1cccc2c1Sc1cc(Cl)ccc1C2` was 72 to 74 °C; that for `Nc1sc2c(c1C(=O)c1ccsc1)CCC2` was 125 to 127 °C; that for `O=C1N(Cc2cccc(OCc3ccccc3)c2)c2ccccc2C12COc1cc3c(cc12)CCO3` (stereo not drawn) was 66 to 68 °C. To `CCOC(=O)NN(C(=O)OCC)C1(c2ccc3c(c2)OCO3)C(=O)N(Cc2ccc(Cl)cc2)c2ccccc21` (stereo not drawn) belongs more than 220 °C; to `COc1ccc(-c2nn(-c3ccc(C)cc3)c3ncccc23)cc1`, 143 to 145 °C.

With `CC(C)C(NC(=O)OC(C)(C)C)C(=O)OCN1C(=O)CCC(N2C(=O)c3ccccc3C2=O)C1=O` (stereo not drawn), the melting point fell in the range of 82 to 85 °C. `Cc1c(C)c2c(c(C)c1NC(=O)CC(C)(C)C)C(=O)C(C)(C)O2` displayed a melting point of 155 to 156 °C. `CCN(CC)C(=O)NC(C)(CC)N=NC(C)(CC)NC(=O)N(CC)CC` (stereo not drawn) registered a melting point of 215 to 220 °C. With `O=C(NC(=O)C(F)(F)F)c1ccccc1-c1noc(-c2ccccc2F)n1`, the melting point is 119 to 120 °C.

`CC(C)c1cccc2c1C(=O)NS2(=O)=O`: the melting point is 177 °C.

Turning to `Cc1c(-c2ccc([N+](=O)[O-])o2)nc(N)n2c(C)nnc12`, the melting point was found to be 290 °C. `COCC1CNc2nc(N)[nH]c(=O)c2N1` (racemic) yielded a melting point of more than 250 °C. The value for `O=C(O)CCCc1c(Cl)cccc1-c1ccccc1` was 74 to 76 °C; that for `COc1ccc2cc(C3CCN(C[C@H](O)COc4cccc5sc(-c6ncc(C)o6)cc45)CC3)ccc2c1` was 163 to 166 °C; that for `COC(=O)N(C)C1CN(C(=O)Nc2ccc(OC(F)(F)F)cc2)N=C1c1ccc(O)cc1` (stereo not drawn) was 228 to 233 °C. In turn, `N=C(N)c1ccc(C(=O)N[C@@H](Cc2ccccc2)C(=O)c2ccc(OCC(=O)O)cc2)cc1` displayed a melting point of more than 200 °C.

In the case of `Cc1nc(NC(=O)c2ccc(-c3nn[nH]n3)cc2)sc1C(=O)NCc1ccccc1`, the melting point was more than 300 °C. Turning to `Cc1nc2c(C(F)(F)F)cccc2c(=O)n1C1CCC(=O)NC1=O` (stereo not drawn), the melting point fell in the range of 351 to 353 °C.

Turning to `CNc1nc(-c2cccc(-c3cncc(-c4ccccc4)c3)c2)c2cc(OC)c(OC)cc2n1`, the melting point lay within 200 to 202 °C. In turn, `COc1c(C2CCN(CCCCNC(=O)c3[nH]nc(-c4ccc(C#N)cc4)c3C)CC2)ccc2c1CCCC2` showed a melting point of 222 °C. `Cc1sc(N2C(=O)OCC2(C)C)nc1-c1ccc(Br)cc1` yielded a melting point of 175 to 176 °C. With `Cc1ccc(S(=O)(=O)NCC(NS(=O)(=O)c2ccc(C)cc2)c2ccccc2)cc1` (stereo not drawn), the melting point is 148 to 149 °C. To `COc1nc(SC)nc(OC)c1C1CC(=O)C=C(O)C1` (stereo not drawn) belongs 195 to 200 °C.

`COc1ccc(Cl)cc1C(=O)NC1COc2cc(C)ccc2C1O` (stereo not drawn) gave a melting point of 151 to 152 °C. For `CC1(C)Nc2ccc(Br)cc2C(NC(=NC#N)Nc2ccccc2)C1O` (stereo not drawn), the melting point fell in the range of 232 to 233 °C. The value for `COc1ccc(CCC(=O)c2c(OC)cc(OC)c(CCC(C)C)c2OCC(=O)O)cc1O` was 129 to 130 °C; that for `Cc1ccc(S(=O)(=O)N2CCCC2c2ccccc2)cc1` (racemic) was 109 °C. As for `O=C(O)[C@H](CSc1ccccc1[N+](=O)[O-])N1C(=O)c2ccccc2C1=O`, the melting point lay in the range of 220 to 222 °C.

The compound `COc1nc(NC(=O)NS(=O)(=O)c2cccc3c2CCCC3)nc(OC)n1` returned a melting point of 171 to 173 °C.

In the case of `CC=CCn1c(C)c(C)c2cnnc(OCc3ccc(F)cc3)c21`, the melting point lay within 93 to 103 °C.

Regarding `COC(=O)CCCNC(=O)C[C@H]1O[C@H](c2cccc(OC)c2OC)c2cc(Cl)ccc2N(CC(C)(C)CO)C1=O`, the melting point fell in the range of 78 to 80 °C. In turn, `CNc1ccc(C(O)(C(F)(F)Cl)C(F)(F)Cl)cc1` yielded a melting point of 92 to 94 °C.

For `CCCc1nc(C(=O)C(C)C)c(C#N)[nH]1`, the melting point was in the range of 90.5 to 91 °C. As for `Cc1nc(N)n(C)c(=O)c1CCN1CCC(Cc2nc3ccccc3n2Cc2ccc(F)cc2)CC1`, the melting point worked out at 147 °C. To `Oc1ncnc2c(-c3ccc(Br)cc3)cnn12` belongs more than 300 °C; to `COC(=O)Cc1cn(C)nc1O`, 118 to 119 °C. The value for `COC(=O)c1c(Sc2nc(OC)cc(OC)n2)cccc1C(C)=O` was 149 to 151 °C; that for `COc1ccc(Br)cc1N1CCCC1` was 47 to 48 °C; that for `CCCn1c(=O)cc(N)n(Cc2ccccc2)c1=O` was 189 to 192 °C. To `O=C1[C@H]2CCC[C@H]2Nc2ccccc2N1Cc1ccc([N+](=O)[O-])cc1` (relative stereo) belongs 154 to 155 °C; to `C[C@H](NC(=O)C[C@H](O)CC(=O)/C=C/c1c(C2CC2)nc2ccccc2c1-c1ccc(F)cc1)c1ccccc1`, 150 to 151 °C; to `CCOC(=O)C1=CC(=O)C(C(=O)OCC)=C(S(=O)(=O)c2ccccc2)C1=O`, 112 to 114 °C. `N#Cc1ccc2c(c1)C=C(C(=O)O)C(C(F)(F)F)O2` (stereo not drawn) showed a melting point of 102 to 106 °C. On to `C/C(=N\O)c1cccc(NC(=O)NCC(=O)N(CC(=O)N(C)c2ccccc2)c2ccccc2)c1`, for which the melting point turned out to be 170 °C. Consider `CC#Cc1cc(Cl)nc(Nc2ccccc2)n1`, for which the melting point is 121 to 124 °C.

In turn, `O=C(NC(Cc1ccccc1)C1CC(Cc2ccccc2)=NO1)OCc1ccccc1` (stereo not drawn) displayed a melting point of 87.5 to 89.5 °C. `O=[N+]([O-])c1ccc2c(c1)S(=O)(=O)NCN2CC(F)(F)F` yielded a melting point of 191 to 193 °C.

Consider `COc1ccc(C2=NN(Cc3ccccc3C(F)(F)F)C(=O)[C@H]3CCCC[C@@H]23)cc1OC` (relative stereo), for which the melting point was 87 to 88 °C.

The compound `CC(C)(N)CCOc1ccc(C2=NNC(=O)CC2)cc1Cl` came in with a melting point of 152 to 156 °C. The value for `CN(Cc1ccncc1)c1ccc([N+](=O)[O-])c2c(C#N)cccc12` was 153 to 156 °C. With `Cc1nc(C#Cc2ccccc2)sc1C`, the melting point lay within 55 to 60 °C.

Consider `COc1cccc(C(=O)c2[nH]c3cc(Cl)ccc3c2CC(=O)O)c1`, for which the melting point was 227 to 231 °C. As to `NC(=O)c1cccc(Cn2ccc(OCc3ccc(F)cc3F)c(Br)c2=O)c1`, the melting point was in the range of 198 to 201 °C. For `CCOc1cc(Oc2ncc(Cl)cn2)ccc1[N+](=O)[O-]`, the melting point lay within 114 to 115 °C. Compound `CN(C)C=Nc1ncc(-c2ccc(C(F)(F)F)cc2)cc1C(F)(F)F` registered a melting point of 114 °C. To `C=CCNCc1c(CO)nc2n1-c1ccc(Cl)cc1C(c1ccccc1F)=NC2` belongs 140 °C; to `CCOC(=O)c1cc2cc(F)cc(NS(=O)(=O)c3cccs3)c2[nH]1`, 174 to 175 °C. In turn, `COC(=O)c1ccc(SC)cc1N` came in with a melting point of 57 to 59 °C.

`CC(C)Cn1c(=O)n(C)c(=O)c2c(SCCCN=[N+]=[N-])c(Cc3cccc4ccccc34)sc21` yielded a melting point of 94 to 96 °C. In turn, `CCCCSc1nc(=O)[nH]cc1F` showed a melting point of 113 °C.

On to `Cc1ccc2[nH]c(=S)c(C(=O)c3ccc([N+](=O)[O-])cc3)c(O)c2c1`, for which the melting point is 247 °C. `O=C(O)CC1(c2ccc(F)cc2)CNC(=O)C1` (stereo not drawn) had a melting point of 174 to 176 °C.

These data come from a melting point compilation (Tetko et al.; mined from patent text by program, amines drawn as free bases though some values may be those of a salt).
